Test results published in patent publication US20260272988A1, “COMPOSITION COMPRISING MILK EXTRACELLULAR VESICLES AND GALACTOSE” (FrieslandCampina Nederland B.V., priority 2023, published 2026).

Test system: C2C12 myotubes
Assay: Seahorse mito-stress test, oxygen consumption rate (OCR) in differentiated C2C12 myotubes
Type: cell-based
Details: for basal respiration (OCR): C2C12 myotubes exposed 24 hours, compared to control and vehicle control (PBS), FIG. 1 / FIG. 2
Description: The execution of the “Seahorse” experiment as used in this example is explained in more detail in Traba et al. (2016) J. Vis. Exp. (117), e54918 especially in FIG. 1 and text relating thereto, and in Rose S, et al. (2014) Oxidative Stress Induces Mitochondrial Dysfunction in a Subset of Autism Lymphoblastoid Cell Lines in a Well-Matched Case Control Cohort. PLoS ONE 9(1): e85436. doi:10.1371/journal.pone.0085436. Briefly, in the Seahorse essay, the Oxygen Consumption Rate (OCR) is measured before and after the addition of inhibitors to derive several parameters of mitochondrial respiration. Initially, baseline cellular OCR is measured, from which basal respiration can be derived by subtracting non-mitochondrial respiration. Next oligomycin, a complex V inhibitor, is added and the resulting OCR is used to derive ATP-linked respiration (by subtracting the oligomycin rate from baseline cellular OCR) and proton leak respiration (by subtracting non-mitochondrial respiration from the oligomycin rate). Next carbonyl cyanide-p-trifluoromethoxyphenyl-hydrazon (FCCP), a protonophore, is added to collapse the inner membrane gradient, allowing the ETC to function at its maximal rate, and maximal respiratory capacity is derived by subtracting nonmitochondrial respiration from the FCCP rate. […] Mitochondrial reserve capacity is calculated by subtracting basal respiration from maximal respiratory capacity. C2C12 cells were routinely cultured in High Glucose Dulbecco's Modified Eagle's Medium (DMEM) supplemented with 10% (v/v) fetal calf serum (FCS), 2 mM glutamine, 25 mM HEPES pH 7.2 and 1% (v/v/v) pen/strep/amphotericin B at 5% CO2 and 37 degrees Celsius. For Seahorse experiments, C2C12 myoblasts (passage 10-20, ATCC) were plated in the morning in XFe96 Seahorse culture plates at a density of 30.000 cells/well. Cells were kept in the flow cabinet for 1 h before being transferred to the incubator. After approximately 6-8 h cells, culture medium was replaced with C2C12 differentiation medium (DMEM with 2% horse serum). C2C12 cells were allowed to differentiate for 5 to 7 days. On the day before the Seahorse run, myotubes were exposed to different nutrients and/or Extracellular Vesicles (mEVs) for 24 hours. Exposure medium was prepared in C2C12 differentiation medium. Galactose and glucose were supplemented to differentiation medium from 1M stocks in H2O. […] In detail, following calibration and equilibration, plates were analyzed in measure/mix cycles of 3 minutes/2 minutes, respectively, in 180 ul Seahorse assay medium. […] In the final injection the nuclear fluorescent stain, Hoechst (40 uM), was also injected, to allow for cell number quantification. […] Images were analyzed using in-house generated scripts in ImageJ and R for processing data. […]

Row | Compound | basal respiration (OCR) | effect of a higher concentration on basal respiration (C2C12 myotubes, 1.4, 2.75, 5.5 mM, FIG. 2)
1 | O=C[C@H](O)[C@@H](O)[C@@H](O)[C@H](O)CO [Sample 6, Galactose] | increase | –
2 | O=C[C@H](O)[C@@H](O)[C@@H](O)[C@H](O)CO [Sample 7, Galactose] | increase | –
3 | O=C[C@H](O)[C@@H](O)[C@@H](O)[C@H](O)CO [Sample 8, Galactose] | increase | –
4 | O=C[C@H](O)[C@@H](O)[C@@H](O)[C@H](O)CO [galactose, D-galactose] | – | increases
